Source: US5922558A, “Methods and compositions for generating chemiluminescence with a peroxidase” (Lumigen, Inc., priority 1997, dated 1999)
Entries after “also recorded” stand apart in the source; their conditions may differ.

Key:
[1] = target: T1, sheep anti-mouse-HRP conjugate (Armoracia rusticana, UniProt P00433); experiment: Western blot assay of β-galactosidase via an HRP-labeled antibody with chemiluminescent reagent, X-ray film; conditions: for Western blot result compared with reagent containing compound 5: both PVDF and nitrocellulose membranes
T1 construct: purchased Boehringer-Mannheim
T1 sequence (P00433 31-338 limits assumed): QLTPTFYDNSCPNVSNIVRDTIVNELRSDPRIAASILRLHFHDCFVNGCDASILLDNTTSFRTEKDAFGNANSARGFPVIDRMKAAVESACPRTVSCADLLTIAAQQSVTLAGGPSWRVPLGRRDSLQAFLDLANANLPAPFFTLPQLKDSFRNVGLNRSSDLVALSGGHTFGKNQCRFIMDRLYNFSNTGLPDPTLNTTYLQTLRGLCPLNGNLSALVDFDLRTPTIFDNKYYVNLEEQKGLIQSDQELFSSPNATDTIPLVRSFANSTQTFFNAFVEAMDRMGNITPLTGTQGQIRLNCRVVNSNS
Description: Compositions of the present invention were used to detect and quantify a protein, β-galactosidase (β-gal) in a Western blot with an HRP-labeled antibody on a polyvinylidene difluoride (PVDF) membrane. Dilutions of β-gal containing 5000, 1000, 180, 30 and 5 pg, respectively, of protein were electrophoresed and transferred to PVDF membranes (Millipore, Bedford, Mass.). The membranes were blocked with 1% non-fat milk in T-TBS (0.05% Tween 20 in TBS; TBS is 50 mmol/L Tris-HCl, pH 7.4, 0.15 mol/L NaCl) and then reacted sequentially with a 1:1500 dilution of mouse anti-β-gal (Boehringer-Mannheim, Indianapolis) and 1:600 dilution of sheep anti-mouse-HRP conjugate (Boehringer-Mannheim). The membranes were washed in T-TBS and soaked for 3 min with a reagent comprising 0.055M tris buffer, pH 8.6 containing 0.66 mM acridan phosphate 5, 0.05 mM p-phenylphenol, 0.25 mM urea peroxide, 0.5 mM EDTA, 0.0125% Tween 20. The membranes were placed between transparent plastic sheets and exposed to X-ray film. […] The light produced led to intense emission which could be imaged for several hours.
A Western blot assay according to the procedure in the previous example was performed using nitrocellulose membrane (Schleicher & Schuell, Keene, N.H.) as the solid phase. β-Galstandards in the range of 5000-5 pg were used. The detection reagent of the previous example permitted detection to be performed over several hours.

[2] = target: T2, horseradish peroxidase (HRP) (Armoracia rusticana, UniProt P00433); experiment: Chemiluminescent detection of HRP in solution with reagent composition (tris buffer, urea peroxide, p-phenylphenol, EDTA, Tween 20); assay type: biochemical
T2 sequence (P00433 31-353): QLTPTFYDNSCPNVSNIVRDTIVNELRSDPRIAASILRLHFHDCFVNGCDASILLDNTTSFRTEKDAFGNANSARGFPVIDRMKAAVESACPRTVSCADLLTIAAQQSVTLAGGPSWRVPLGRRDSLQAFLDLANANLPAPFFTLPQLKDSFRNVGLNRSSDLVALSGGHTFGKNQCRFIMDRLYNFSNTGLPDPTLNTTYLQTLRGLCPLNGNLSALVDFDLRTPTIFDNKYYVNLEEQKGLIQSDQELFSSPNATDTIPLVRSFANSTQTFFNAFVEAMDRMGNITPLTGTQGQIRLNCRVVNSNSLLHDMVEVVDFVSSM
Procedure: (§1) Reagent compositions comprising 0.055M tris buffer, pH 8.6, 0.25 mM urea peroxide, 0.05 mM p-phenylphe nol, 0.5 mM EDTA, 0.0125% Tween 20 and 3.3×10^-4 M acridan 5 were tested for production of chemiluminescence by reacting triplicate 100 μL aliquots with 10 μL of solutions of HRP in water containing between 1.4×10^-15 and 1.4×10^-19 moles of enzyme. […] The relation between chemiluminescence intensity at 15 min and amount of enzyme is depicted in FIG. 1.
as §1, with “mM p-phenylphenol,” for “mM p-phenylphe nol,”, “acridan 13” for “acridan 5”, “intensity” for “intensity at 15 min”, “FIG. 2.” for “FIG. 1.”
In the manner of Example 21, compositions containing each of compounds 1-4 and 6-12 and 14 were reacted with HRP at 25° C. Each produced easily measurable chemiluminescence discernable above the background measured in the absence of HRP.
The chemiluminescence profile of acridan phosphate 5 reacted with HRP is depicted in FIG. 3. Reaction of 100 μL of the reagent composition of Example 20 with 1.4×10^-15 mol of HRP at 25° C. caused an instant rise in light emission which achieved maximum intensity in ca. 5 min.
(§2) Reagent compositions comprising 0.01M tris buffer, pH 8.0, 0.5 mM urea peroxide, 0.1 mM p-phenylphenol, 1 mM EDTA, 0.025% Tween 20 and 5×10^-5 M acridan 37 were tested for production of chemiluminescence by reacting triplicate 100 μL aliquots with 10 μL of HRP in the range 1.4×10^-14 to 1.4×10^-19 moles. […] The relation between chemiluminescence intensity and amount of enzyme is depicted in FIG. 4.
A reagent composition (40 μL) comprising 0.01M tris buffer, pH 8.0, 0.5 mM urea peroxide, 0.1 mM p-phenylphenol, 1 mM EDTA, 0.025% Tween 20 and 5×10^-5 M acridan 38 was reacted with 1 μL of a solution containing 1.4×10^-15 moles of HRP. […] The chemiluminescence time profile is depicted in FIG. 5.
as §2, with “39” for “37”, “1.4×10^-15” for “1.4×10^-14”, “1.4×10^-20” for “1.4×10^-19”, “6.” for “4.”
A reagent composition (100 μL) comprising 0.01M tris buffer, pH 8.0, 0.5 mM urea peroxide, 0.1 mM p-phenylphenol, 1 mM EDTA, 0.025% Tween 20 and 5×10^-5 M acridan 40 was reacted with 10 μL of a solution containing 1.4×10^-15 moles of HRP.
A reagent composition (100 μL) comprising 0.01M tris buffer, pH 8.0, 0.5 mM urea peroxide, 0.1 mM p-phenylphenol, 1 mM EDTA, 0.025% Tween 20 and 5×10^-5 M acridan 50 was reacted with 2.5 μL of a solution containing 3.5×10^-16 moles of HRP. […] The chemiluminescence time profile is depicted in FIG. 7.
Reagent compositions comprising 0.055M tris buffer, pH 8.6, 0.25 mM urea peroxide, 0.05 mM p-phenylphenol, 0.5 mM EDTA, 0.0125% Tween 20, 1 mM CTAB and 6.6×10^-4 M acridan 43 were tested for production of chemiluminescence by reacting triplicate 100 μL aliquots with 10 μL of solutions of HRP containing between 1.4×10^-15 and 1.4×10^-19 moles of HRP. The relation between chemiluminescence intensity at 15 min and amount of enzyme is depicted in FIG. 8.
Reagent compositions comprising 0.055M tris buffer, pH 8.6, 0.25 mM urea peroxide, 0.05 mM p-phenylphenol, 0.5 mM EDTA, 0.0125% Tween 20, 1 mM CTAB and 6.6×10^-4 M compound 46 alone or with 50 μM DBA were tested for production of chemiluminescence by reacting a 100 μL aliquot with 3.5×10^-15 moles of HRP.

peroxidase = target: T3, peroxidase (Armoracia rusticana, UniProt P00433); experiment: Reaction with a peroxidase and a peroxide to produce chemiluminescence (general statements); assay type: biochemical; conditions: with versus without CTAB
T3 construct: isoenzyme C dominant
T3 sequence (P00433 31-338): T1 sequence (P00433 31-338 limits assumed)
Procedure: Another aspect of the present invention is the use of compounds of any of formulas I-VI in a method to produce chemiluminescence by reaction with a peroxidase. Reaction of a compound of formula I-VI with a peroxidase and a peroxide in an aqueous buffer solution produces easily detected chemiluminescence. Light intensity reaches a maximum level within minutes at room temperature when the reaction is conducted at alkaline pH. The reaction is conducted optionally in the presence of an enhancer. [drawing 15] Cationic surfactants, including quaternary ammonium salt compounds such as CTAB, are advantageous for use in increasing the level of chemiluminescence emitted when certain compounds of the present invention are reacted with a peroxidase and a peroxide.

[3] = 0.055M tris pH 8.6, 0.25 mM urea peroxide, 0.05 mM p-phenylphenol, 3.3×10^-4 M compound, HRP 1.4×10^-15 to 1.4×10^-19 moles
[4] = 0.01M tris pH 8.0, 0.5 mM urea peroxide, 0.1 mM p-phenylphenol, 5×10^-5 M acridan

## CN1c2ccccc2C(=C(Oc2ccccc2)OP(=O)(O)O)c2ccccc21 [Compound 1]
[1]
  Western blot result compared with reagent containing compound 5: qualitatively the same result

## CN1c2ccccc2C(=C(OP(=O)(O)O)Sc2ccccc2)c2ccccc21 [Compound 5]
[1]; 0.66 mM compound, tris pH 8.6
  duration over which emission could be imaged, Western blot, PVDF membrane: several hours
[1]; β-gal 5000, 1000, 180, 30 and 5 pg, 0.66 mM compound, 30 s exposure after 14 min
  detection of β-gal in Western blot, PVDF membrane: detection of β-gal; also recorded: detected
[2]; [3]
  production of chemiluminescence on reaction with HRP: Light production ensued upon mixing
[2]; 100 μL reagent of Example 20 (0.055M tris pH 8.6, 3.3×10^-4 M acridan), 1.4×10^-15 mol HRP, 25° C.
  time to maximum chemiluminescence intensity: ca. 5 min

## CN1c2ccccc2C(=C(OP(=O)(O)O)Sc2ccc(Cl)cc2)c2ccccc21 [Compound 12]
[1]
  Western blot result compared with reagent containing compound 5: qualitatively the same result

## CN1c2ccccc2C(=C(OP(=O)(O)O)Sc2ccc3ccccc3c2)c2ccccc21 [Compound 13]
[1]
  Western blot result compared with reagent containing compound 5: qualitatively the same result
[2]; [3]
  production of chemiluminescence on reaction with HRP: Light production ensued upon mixing

## CCOP(=O)(OCC)OC(Oc1ccccc1)=C1c2ccccc2N(C)c2ccccc21 [Compound 37]
[2]; [4]
  production of chemiluminescence on reaction with HRP: Light production ensued upon mixing

## CCOP(=O)(OCC)OC(Sc1ccccc1)=C1c2ccccc2N(C)c2ccccc21 [Compound 38]
[2]; [4]
  production of chemiluminescence on reaction with HRP: Light production ensued upon mixing
[2]; 40 μL reagent, 0.01M tris pH 8.0, 5×10^-5 M acridan, 1.4×10^-15 moles HRP, 25° C.
  time to maximum chemiluminescence intensity: 1 min

## CC(=O)OC(Oc1ccccc1)=C1c2ccccc2N(C)c2ccccc21 [Compound 39]
[2]; [4]
  production of chemiluminescence on reaction with HRP: Light production ensued upon mixing
[2]; 100 μL reagent, 0.01M tris pH 8.0, 5×10^-5 M acridan, HRP 1.4×10^-15 to 1.4×10^-20 moles
  time to maximum chemiluminescence intensity: 30 min

## CC(=O)OC(Sc1ccccc1)=C1c2ccccc2N(C)c2ccccc21 [Compound 40]
[2]; [4]
  production of chemiluminescence on reaction with HRP: Light production ensued upon mixing
[2]; 100 μL reagent, 0.01M tris pH 8.0, 5×10^-5 M acridan, 1.4×10^-15 moles HRP
  time to maximum chemiluminescence intensity: 7 min

## CC(=C(OP(=O)(O)O)Sc1ccccc1)c1ccc2cc(O)ccc2c1 [Compound 43]
peroxidase
  change of light intensity when CTAB was included in the reaction mixture: increased more than ten-fold

## O=P(O)(O)OC(Sc1ccccc1)=C(c1ccccc1)c1ccccc1 [Compound 46]
peroxidase
  change of light intensity when CTAB was included in the reaction mixture: increased more than ten-fold
[2]; 0.055M tris pH 8.6, 1 mM CTAB, 6.6×10^-4 M compound alone or with 50 μM DBA, 3.5×10^-15 moles HRP
  effect of triplet energy acceptor DBA on chemiluminescence: enhancement of chemiluminescence

## COC(Sc1ccccc1)=C1c2ccccc2N(C)c2ccccc21 [Compound 50]
[2]; [4]
  production of chemiluminescence on reaction with HRP: Light production ensued upon mixing
[2]; 100 μL reagent, 0.01M tris pH 8.0, 5×10^-5 M acridan, 3.5×10^-16 moles HRP, 25° C.
  time to maximum chemiluminescence intensity: 7 min
